Article PMC11784839, “Monoaminergic neurotransmitters are bimodal effectors of tau aggregation” (Science Advances, 2025)

Biological target: tau (Homo sapiens, UniProt P10636)
Experiment: MCE Phenols Library screening, tau biosensor cell seeding assay (AvZ)
Format: cell-based
Conditions: for AvZ (average z score of seeding, SDs from the mean level of seeding): 10 μM phenol in cell cultures, AD brain homogenate preincubated 16 hours, two biological replicates, positive = catalyzes seeding, negative = inhibits; for Z repl 1 / Z Repl 2: Z score; for Z repl 1 / raw data 1: replicate 1; for Z Repl 2 / raw data 2: replicate 2
[1] = average puncta of the two replicates
[2] = average Z score of the two replicates, tau seeding
[3] = average Z score of the two replicates, tau biosensor seeding, MCE Phenols Library screen
[4] = average Z score of the two replicates, MCE Phenols Library screen
[5] = average Z score of two replicates, Phenols Library screen

Sequence of tau (P10636 623-695 limits assumed): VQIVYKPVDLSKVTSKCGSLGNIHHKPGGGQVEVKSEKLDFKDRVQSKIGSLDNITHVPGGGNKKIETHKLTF

## NCc1ccc(O)cc1 [4-Hydroxybenzylamine]
  AvZ (average z score of seeding, SDs from the mean level of seeding): -0.572
  Z repl 1: -0.693
  Z Repl 2: -0.451
[1]
  av puncta: 12984.9
puncta
  raw data 1: 18024.8
  raw data 2: 7945.11

## CC1(C)C=Cc2c(ccc3c2OC[C@@H](c2ccc(O)cc2O)C3)O1 [Glabridin]
  Z repl 1: 0.624
  Z Repl 2: 0.805
[2]
  av Z: 0.715
Average of raw data 1 and 2
  av puncta: 27603.9
puncta
  raw data 1: 33843.5
  raw data 2: 21364.3

## CC(C)=CCc1cc2c(=O)cc(-c3ccc(O)cc3)oc2cc1O [Licoflavone A]
  Z repl 1: 1.035
  Z Repl 2: 0.525
[3]
  av Z: 0.78
Average of raw data 1 and 2
  av puncta: 28570.9
puncta
  raw data 1: 38768.9
  raw data 2: 18372.9

## O=C(O)CCc1ccc(O)c(O)c1 [Dihydrocaffeic acid]
  AvZ (average z score of seeding, SDs from the mean level of seeding): -0.454
  Z repl 1: 0.014
  Z Repl 2: -0.922
[1]
  av puncta: 14716.5
Raw puncta
  raw data 1: 26515.6
  raw data 2: 2917.33

## COc1cc2c(cc1OC)[C@@H](Cc1ccc(O)c(Oc3cc4c(cc3OC)CCN(C)[C@@H]4Cc3ccc(O)cc3)c1)N(C)CC2 [Liensinine]
  Z repl 1: -0.418
  Z Repl 2: -0.081
[4]
  av Z: -0.249
[1]
  av puncta: 16619
Raw puncta
  raw data 1: 21336.6
  raw data 2: 11901.3

## O=c1oc2c(O)c(O)cc3c(=O)oc4c(O)c(O)cc1c4c23 [Ellagic acid]
  Z repl 1: -1.043
  Z Repl 2: -0.067
[4]
  av Z: -0.555
[1]
  av puncta: 12935.6
puncta
  raw data 1: 13826.2
  raw data 2: 12045.1

## Cc1cccc(O)c1O [3-Methylcatechol]
  AvZ (average z score of seeding, SDs from the mean level of seeding): -0.42
  Z repl 1: -0.458
  Z Repl 2: -0.383
[1]
  av puncta: 14763.7
Raw puncta
  raw data 1: 20851.2
  raw data 2: 8676.12

## Oc1ccc(O)c(O)c1 [1,2,4-Trihydroxybenzene]
  AvZ (average z score of seeding, SDs from the mean level of seeding): -1.385
  Z repl 1: -1.617
  Z Repl 2: -1.152
Average of raw data 1 and 2
  av puncta: 3698
puncta
  raw data 1: 6931.48
  raw data 2: 464.513

## O=c1c(O)c(-c2ccc(O)cc2)oc2c(O)c(O)cc(O)c12 [Herbacetin]
  AvZ (average z score of seeding, SDs from the mean level of seeding): -1.63
  Z repl 1: -2.129
  Z Repl 2: -1.129
[4]
  av Z: -1.629
Average of raw data 1 and 2
  av puncta: 747.252
puncta
  raw data 1: 787.042
  raw data 2: 707.463

## O=C(O)c1c(O)cccc1O [2,6-Dihydroxybenzoic acid]
  AvZ (average z score of seeding, SDs from the mean level of seeding): 0.715
  Z repl 1: 0.475
  Z Repl 2: 0.955
Average of raw data 1 and 2
  av puncta: 27508.9
puncta
  raw data 1: 32047.3
  raw data 2: 22970.5

## CCCCCCC/C=C/C(=O)CCc1ccc(O)c(OC)c1 [[8]-Shogaol]
  AvZ (average z score of seeding, SDs from the mean level of seeding): -0.665
  Z repl 1: -0.527
  Z Repl 2: -0.802
[1]
  av puncta: 12111.2
puncta
  raw data 1: 20022.1
  raw data 2: 4200.38

## OC[C@]1(O)COc2cc(O)ccc2-c2cc(O)c(O)cc2C1 [Protosappanin B]
  Z repl 1: -0.022
  Z Repl 2: -0.809
[4]
  av Z: -0.415
[1]
  av puncta: 15106.6
Raw puncta
  raw data 1: 26082.6
  raw data 2: 4130.62

## Cc1cc(O)c2c(c1)C(=O)c1cc(O)cc(O[C@@H]3O[C@H](CO)[C@@H](O)[C@H](O)[C@H]3O)c1C2=O [Emodin-8-glucoside]
  Z repl 1: 0.113
  Z Repl 2: -0.367
[5]
  av Z: -0.127
Average of raw data 1 and 2
  av puncta: 18275.8
puncta
  raw data 1: 27700.1
  raw data 2: 8851.57

## O=c1c(O)c(-c2ccc(O)cc2O)oc2cc(O)cc(O)c12 [Morin]
  Z repl 1: -1.702
  Z Repl 2: -1.085
[4]
  av Z: -1.394
Average of raw data 1 and 2
  av puncta: 3543.97
puncta
  raw data 1: 5911.71
  raw data 2: 1176.23

## CC(=O)c1ccc(O)c(O)c1 [3',4'-Dihydroxyacetophenone]
  AvZ (average z score of seeding, SDs from the mean level of seeding): -0.667
  Z repl 1: -0.338
  Z Repl 2: -0.997
[1]
  av puncta: 12205
puncta
  raw data 1: 22292.7
  raw data 2: 2117.17

## Oc1cc(O)c2c(c1)O[C@H](c1ccc(O)c(O)c1)[C@H](O)[C@H]2c1c(O)cc(O)c2c1O[C@H](c1ccc(O)c(O)c1)[C@H](O)C2 [Procyanidin B2]
  Z repl 1: -0.678
  Z Repl 2: -0.711
[4]
  av Z: -0.695
[1]
  av puncta: 11690.3
puncta
  raw data 1: 18204.5
  raw data 2: 5175.99

## C[C@@H]1O[C@@H](O[C@@H]2[C@@H](O)[C@H](OCCc3ccc(O)c(O)c3)O[C@H](CO)[C@H]2OC(=O)/C=C/c2ccc(O)c(O)c2)[C@H](O)[C@H](O)[C@H]1O [Verbascoside]
  Z repl 1: -0.258
  Z Repl 2: -1.055
[4]
  av Z: -0.656
[1]
  av puncta: 12378.6
puncta
  raw data 1: 23255.9
  raw data 2: 1501.28

## O=c1ccc2cc(O)ccc2o1 [6-Hydroxycoumarin]
  Z repl 1: -0.422
  Z Repl 2: 0.434
[5]
  av Z: 0.006
Average of raw data 1 and 2
  av puncta: 19344
puncta
  raw data 1: 21288.5
  raw data 2: 17399.5

## C[C@@H]1CC(=O)c2c(ccc3c2C(=O)c2cccc(O)c2C3=O)C1 [Ochromycinone]
  Z repl 1: -0.991
  Z Repl 2: -0.213
[4]
  av Z: -0.602
[1]
  av puncta: 12471.4
puncta
  raw data 1: 14447.4
  raw data 2: 10495.4

## O=C1c2cccc(O)c2C(=O)c2c(O)cccc21 [Danthron]
  Z repl 1: -1.052
  Z Repl 2: -0.634
[4]
  av Z: -0.843
Average of raw data 1 and 2
  av puncta: 9858.03
puncta
  raw data 1: 13720.6
  raw data 2: 5995.43

## Cc1cc(=O)c2c(O)cc(O)cc2o1 [Noreugenin]
  Z repl 1: -0.363
  Z Repl 2: -0.457
[4]
  av Z: -0.41
[1]
  av puncta: 14938
Raw puncta
  raw data 1: 21994.8
  raw data 2: 7881.17

## C[C@H]1CCCC(=O)CCCCCc2cc(O)cc(O)c2C(=O)O1 [Zearalanone]
  Z repl 1: 0.089
  Z Repl 2: -0.477
[5]
  av Z: -0.194
Average of raw data 1 and 2
  av puncta: 17549.1
puncta
  raw data 1: 27422.4
  raw data 2: 7675.78

## COc1cc(O)c(C(=O)/C=C/c2ccccc2)c(OC)c1 [Flavokawain B]
  Z repl 1: -0.296
  Z Repl 2: -0.062
[5]
  av Z: -0.179
Average of raw data 1 and 2
  av puncta: 17449.7
puncta
  raw data 1: 22793.1
  raw data 2: 12106.3

## O=C1c2ccccc2C(=O)c2c(O)c(O)cc(O)c21 [Purpurin]
  Z repl 1: 0.055
  Z Repl 2: -0.946
[4]
  av Z: -0.446
[1]
  av puncta: 14831.1
Raw puncta
  raw data 1: 27004.8
  raw data 2: 2657.32

## C=C(C)[C@H](CC=C(C)C)Cc1c(O)cc(OC)c2c1O[C@H](c1ccc(O)cc1O)[C@@H](O)C2=O [Kushenol I]
  Z repl 1: 0.564
  Z Repl 2: -0.398
[5]
  av Z: 0.083
Average of raw data 1 and 2
  av puncta: 20816.6
puncta
  raw data 1: 33117.8
  raw data 2: 8515.32

## Cc1cc(O)cc(O)c1 [Orcinol]
  AvZ (average z score of seeding, SDs from the mean level of seeding): -0.839
  Z repl 1: -1.362
  Z Repl 2: -0.316
Average of raw data 1 and 2
  av puncta: 9697.38
puncta
  raw data 1: 9999.31
  raw data 2: 9395.45

## COc1cc(-c2oc3cc(OC)c(OC)c(O)c3c(=O)c2OC)ccc1O [Chrysosplenetin]
  Z repl 1: 0.088
  Z Repl 2: -0.899
[4]
  av Z: -0.406
[1]
  av puncta: 15282.9
Raw puncta
  raw data 1: 27400
  raw data 2: 3165.82

## CCc1cccc(C)c1O [2-Ethyl-6-methylphenol]
  AvZ (average z score of seeding, SDs from the mean level of seeding): 0.167
  Z repl 1: 0.346
  Z Repl 2: -0.011
Average of raw data 1 and 2
  av puncta: 21574.5
puncta
  raw data 1: 30502.1
  raw data 2: 12646.9

## COc1cc(/C=C/C(=O)O)ccc1O [Ferulic acid]
  AvZ (average z score of seeding, SDs from the mean level of seeding): -0.451
  Z repl 1: -0.555
  Z Repl 2: -0.346
[1]
  av puncta: 14374.8
Raw puncta
  raw data 1: 19680.6
  raw data 2: 9068.99

## CCCCCCCCC/C=C/C(=O)CCc1ccc(O)c(OC)c1 [10-Shogaol]
  AvZ (average z score of seeding, SDs from the mean level of seeding): -0.507

## O=C1O[C@@H]2[C@@H](O)[C@H](O)[C@@H](CO)O[C@H]2c2c1cc(O)c(O)c2O [Norbergenin]
  Z repl 1: -0.528
  Z Repl 2: 0.442
[5]
  av Z: -0.043
Average of raw data 1 and 2
  av puncta: 18743.5
puncta
  raw data 1: 20005.8
  raw data 2: 17481.2

## C[C@@H]1O[C@@H](OC[C@H]2O[C@@H](Oc3c(-c4ccc(O)cc4)oc4cc(O)cc(O)c4c3=O)[C@H](O[C@@H]3O[C@@H](C)[C@H](O)[C@@H](O)[C@H]3O)[C@@H](O)[C@H]2O)[C@H](O)[C@H](O)[C@H]1O [Mauritianin]
  Z repl 1: 0.781
  Z Repl 2: 1.032
[3]
  av Z: 0.906
Average of raw data 1 and 2
  av puncta: 29752.2
puncta
  raw data 1: 35719.4
  raw data 2: 23785

## COc1cc2ccc(=O)oc2c(OC)c1O [Isofraxidin]
  Z repl 1: 0.211
  Z Repl 2: 0.742
[2]
  av Z: 0.477
Average of raw data 1 and 2
  av puncta: 24789.8
puncta
  raw data 1: 28887.4
  raw data 2: 20692.2

## C#C[C@]1(O)CC[C@H]2[C@@H]3CCc4cc(O)ccc4[C@H]3CC[C@@]21C [Ethynyl Estradiol]
  Z repl 1: 0.578
  Z Repl 2: 0.204
[2]
  av Z: 0.391
Average of raw data 1 and 2
  av puncta: 24116.9
puncta
  raw data 1: 33285.2
  raw data 2: 14948.5
